Measured values published in patent publication US20250340561A1, “QUINAZOLINE COMPOUND FOR INDUCING DEGRADATION OF G12D MUTANT KRAS PROTEIN” (Astellas Pharma Inc., priority 2021, published 2025).
Counter-ions that a name gives are not always drawn. Like-named read-outs stand apart in the source and are kept apart here.

Key:
[1] = tested on: phosphorylation of ERK (Thr202/Tyr204); assay: Test Example 2: ERK phosphorylation inhibition action in AsPC-1, Cell ELISA; format: cell-based, human; conditions: Homo sapiens, ASPC1, 24 h, AsPC-1 cells, 0% = 1 μM trametinib
Protocol: Test Example 2: Evaluation of ERK Phosphorylation Inhibition Action on Human G12D Mutant KRAS-Positive Pancreatic Cancer Line AsPC-1
The ERK phosphorylation inhibition action of test compounds was evaluated by measuring phosphorylation of the 202th threonine (Thr202) and the 204th tyrosine (Tyr204) of ERK located downstream of the KRAS signal by Cell ELISA.
AsPC-1 cells were seeded on a 384-well plate (from Greiner bio-one) at 36 μL/well to give 2.0×10^4 cells per well. As for the cell culture conditions, a RPMI 1640 medium containing 10% fetal bovine serum was used in the presence of 5% CO2 at 37° C.
The next day, the test compounds (6 points having final concentrations in the range of 10 μM to 3.0 nM), trametinib (MEK inhibitor) of a final concentration of 1 μM as a positive control and DMSO, which was the solvent for the test compounds, as a negative control were diluted 100-fold with a fresh medium and were added at 4 μL per well. The cells were then cultured for 24 hours. After culturing, a 30% glyoxal solution (40% glyoxal [from Nacalai Tesque] was diluted with PBS) was quickly added at 30 μL per well, and the plate was allowed to stand for 90 minutes at room temperature to thus immobilize the cells. Then, the plate was centrifuged to remove the supernatant (using a centrifugal dehydrator machine, the supernatant was removed by the same method hereinafter), and 0.1% Triton X-100-containing PBS was added at 20 μL per well. After allowing to stand for 10 minutes at room temperature, the supernatant was removed by centrifugation, and the same operation was further repeated. Next, 0.5% SDS-containing PBS was added at 20 μL per well, and after allowing to stand at room temperature for 30 minutes, the supernatant was removed by centrifugation. Subsequently, a blocking solution (Intercept Blocking Buffer) was added at 20 μL per well, and the plate was allowed to stand for 1 hour at room temperature. The supernatant was removed by centrifugation, and an ERK (Thr202/Tyr204) phosphorylation antibody (Phospho-p44/42 MAPK (Erk 1/2) (Thr202/Tyr204) (D13.14.4E) XP Rabbit mAb; from Cell Signaling Technology) diluted 2,500-fold with a blocking solution was added at 10 or 15 μL per well as a primary antibody. The plate was allowed to stand at 4° C. overnight.
The next day, the plate was centrifuged to remove the supernatant. 0.05% Tween-20-containing PBS was added at 50 μL per well, and the supernatant was removed by centrifugation to thus wash each well. The washing was performed three times in total. After washing, Goat anti-Rabbit IgG H&L (IRDye 800CW) diluted 1,000-fold with a blocking solution was added at […] as a secondary antibody, and the plate was allowed to stand for 1 hour at room temperature. The plate was centrifuged to remove the supernatant, and each well was washed three times with 0.05% Tween-20-containing PBS in the same manner as after the primary antibody reaction. After removing the supernatant by centrifuging the plate, the plate was dried as it was with air at room temperature for 3 hours or more, and the 800-nm fluorescent signals were measured with Aerius.
With the signaling value at the time of addition of DMSO taken as 100% and with the signaling value at the time of addition of 1 μM trametinib taken as 0%, the 50% inhibition values (IC50) were calculated by Sigmoid-Emax model nonlinear regression analysis. The molecular weights of the test compounds were calculated as the molecular weights of the dihydrochloride for Example No. 22, the trihydrochlorides for Example Nos. 2-7, 9-12, 14-18 and 30, the tetrahydrochlorides for Example Nos. 19 and 46, the pentahydrochloride for Example No. 21 and the free forms forming no salt for the remaining Example Nos. The results for some test compounds of the formula (I) are shown in Table 3.

[2] = tested on: human G12D mutant KRAS-positive pancreatic cancer line AsPC-1; assay: Test Example 3: non-anchorage-dependent cell growth inhibition, spheroid 3D cell culture; format: cell-based; conditions: Homo sapiens, ASPC1, 144 h, AsPC-1 spheroid 3D culture, 6 days, CellTiter Glo 2.0
Protocol: Test Example 3: Evaluation of Non-Anchorage-Dependent Cell Growth Inhibition Action on Human G12D Mutant KRAS-Positive Pancreatic Cancer Line AsPC-1
The non-anchorage-dependent cell growth inhibition action of test compounds was evaluated by spheroid 3D cell culture.
AsPC-1 cells were seeded on a low-cell-adhesive round bottom 384-well plate (PrimeSurface: from Sumitomo Bakelite) at 36 μL/well to give 5×10^2 cells per well. The cell culture was performed under the same conditions as in the Test Example 2.
The next day, the test compounds (6 points having final concentrations in the range of 10 μM to 3.0 nM) and DMSO, which was the solvent for the test compounds, as a negative control were diluted 100-fold with a fresh medium and were added at 4 μL per well. After culturing in the presence of […] at 37° C. for 6 days, CellTiter Glo 2.0 (from Promega) was added at 20 μL per well. After stirring with a plate mixer (from FINEPCR) at normal temperature for 1 hour, the luminescent signals were measured with ARVO X3 (from PerkinElmer).
With the signaling value in treatment with DMSO taken as […] and with the signaling value in the medium alone without cells taken as […], the […] inhibition values (IC50) were calculated by Sigmoid-Emax model nonlinear regression analysis. The molecular weights of the test compounds were calculated as the molecular weights of the dihydrochloride for Example No. 22, the trihydrochlorides for Example Nos. 2-7, 9-12, 14-18 and 30, the tetrahydrochlorides for Example Nos. 19 and 46, the pentahydrochloride for Example No. 21 and the free forms forming no salt for the remaining Example Nos. The results for some test compounds of the formula (I) are shown in Table 4.

Structure (SMILES)	IC50 [1] [nM]	IC50 [2] [nM]	IC50 ([1]; read-out: IC50) [nM]	IC50 ([2]; read-out: IC50) [nM]
Cc1ncsc1-c1ccc([C@H](CO)NC(=O)[C@@H]2C[C@@H](O)CN2C(=O)[C@H](C(C)C)n2cc(-c3ccc(COc4c(-c5c(C)c(F)cc6[nH]ncc56)c(C5CC5)cc5c(N6C[C@@H]7C[C@H]6CN7)nc(OC[C@H]6CCOC6)nc45)cc3)nn2)cc1 [Example 51]	14	27		
CO[C@@H](C)COc1nc(N2C[C@@H]3C[C@H]2CN3)c2cc(C3CC3)c(-c3c(C)c(F)cc4[nH]ncc34)c(OCc3ccc(-c4cn([C@H](C(=O)N5C[C@H](O)C[C@H]5C(=O)N[C@@H](CO)c5ccc(-c6ocnc6C)cc5)C(C)C)nn4)cc3)c2n1 [Example 72]			16	26
Cc1ncsc1-c1ccc([C@H](CO)NC(=O)[C@@H]2C[C@@H](O)CN2C(=O)[C@H](C(C)C)n2cc(-c3ccc(COc4c(-c5c(C)c(F)cc6[nH]ncc56)c(C5CC5)cc5c(N6C[C@@H]7C[C@H]6CN7)nc(O[C@H]6CCN(CCO)C6)nc45)cc3)nn2)cc1 [Example 31]	194	321		
CO[C@H](C)COc1nc(N2C[C@@H]3C[C@H]2CN3)c2cc(C3CC3)c(-c3c(C)c(F)cc4[nH]ncc34)c(OCc3ccc(-c4cn([C@H](C(=O)N5C[C@H](O)C[C@H]5C(=O)N[C@@H](CO)c5ccc(-c6scnc6C)cc5)C(C)C)nn4)cc3)c2n1 [Example 47]	18	22		
Cc1c(F)cc2[nH]ncc2c1-c1c(C2CC2)cc2c(N3C[C@@H]4C[C@H]3CN4)nc(OC3CCOCC3)nc2c1OCc1ccc(-c2cn([C@H](C(=O)N3C[C@H](O)C[C@H]3C(=O)N[C@@H](CO)c3ccc(Br)cc3)C(C)C)nn2)cc1 [Example 12]	37	112		
Cc1c(F)cc2[nH]ncc2c1-c1c(C2CC2)cc2c(N3C[C@@H]4C[C@H]3CN4)nc(OC3CCOCC3)nc2c1OCc1ccc(-c2cn([C@H](C(=O)N3C[C@H](O)C[C@H]3C(=O)N[C@@H](CO)c3ccc(-c4scnc4CO)cc3)C(C)C)nn2)cc1 [Example 18, (4R)-1-[(2S)-2-(4-{4-[({6-cyclopropyl-4-[(1S,4S)-2,5-diazabicyclo[2.2.1]heptan-2-yl]-7-(6-fluoro-5-methyl-1H-indazol-4-yl)-2-[(oxan-4-yl)oxy]quinazolin-8-yl}oxy)methyl]phenyl}-1H-1,2,3-triazol-1-yl)-3-methylbutanoyl]-4-hydroxy-N-[(1R)-2-hydroxy-1-{4-[4-(hydroxymethyl)-1,3-thiazol-5-yl]phenyl}ethyl]-L-prolinamide n hydrochloride]			28	70
Cc1ncsc1-c1ccc([C@H](CO)NC(=O)[C@@H]2C[C@@H](O)CN2C(=O)[C@H](C(C)C)n2cc(-c3ccc(COc4c(-c5c(C)c(F)cc6[nH]ncc56)c(C5CC5)cc5c(N6C[C@@H]7C[C@H]6CN7)nc(O[C@@H]6CCN(CC(F)F)C6)nc45)cc3)nn2)cc1 [Example 34]	26	33		
Cc1ncsc1-c1ccc([C@H](CO)NC(=O)[C@@H]2C[C@@H](O)CN2C(=O)[C@H](C(C)C)n2cc(-c3ccc(COc4c(-c5c(C)c(F)cc6[nH]ncc56)c(C5CC5)cc5c(N6C[C@@H]7C[C@H]6CN7)nc(OC6CCN(CC(F)F)CC6)nc45)cc3)nn2)cc1 [Example 21]			19	47
Cc1ncsc1-c1ccc([C@H](CO)NC(=O)[C@@H]2C[C@@H](O)CN2C(=O)[C@H](C2CC2)n2cc(-c3ccc(COc4c(-c5c(C)c(F)cc6[nH]ncc56)c(C5CC5)cc5c(N6C[C@@H]7C[C@H]6CN7)nc(OC6CCOCC6)nc45)cc3)nn2)cc1 [Example 73]			133	112
Cc1ncsc1-c1ccc(C2(NC(=O)[C@@H]3C[C@@H](O)CN3C(=O)[C@H](C(C)C)n3cc(-c4ccc(COc5c(-c6c(C)c(F)cc7[nH]ncc67)c(C6CC6)cc6c(N7C[C@@H]8C[C@H]7CN8)nc(OC7CCOCC7)nc56)cc4)nn3)CC2)cc1 [Example 6]	58	100		
Cc1ncsc1-c1ccc([C@H](CO)NC(=O)[C@@H]2C[C@@H](O)CN2C(=O)[C@H](C(C)C)n2cc(-c3ccc(COc4c(-c5c(C)c(F)cc6[nH]ncc56)c(C5CC5)cc5c(N6C[C@@H]7C[C@H]6CN7)nc(OC[C@@H]6CCOC6)nc45)cc3)nn2)cc1 [Example 50]	10	21		
Cc1c(F)cc2[nH]ncc2c1-c1c(C2CC2)cc2c(N3C[C@@H]4C[C@H]3CN4)nc(OC3CCOCC3)nc2c1OCc1ccc(-c2cn([C@H](C(=O)N3C[C@H](O)C[C@H]3C(=O)N[C@@H](CO)c3cccc(F)c3)C(C)C)nn2)cc1 [Example 63]	72	133		
Cc1ncsc1-c1ccc([C@H](CO)NC(=O)[C@@H]2C[C@@H](O)CN2C(=O)[C@H](C(C)C)n2cc(-c3ccc(COc4c(-c5c(C)c(F)cc6[nH]ncc56)c(C5CC5)cc5c(N6C[C@@H]7C[C@H]6CN7)nc(O[C@H]6CCN(CC(F)F)C6)nc45)cc3)nn2)cc1 [Example 33]	32	42		
COCCN1CC[C@H](Oc2nc(N3C[C@@H]4C[C@H]3CN4)c3cc(C4CC4)c(-c4c(C)c(F)cc5[nH]ncc45)c(OCc4ccc(-c5cn([C@H](C(=O)N6C[C@H](O)C[C@H]6C(=O)N[C@@H](CO)c6ccc(-c7scnc7C)cc6)C(C)C)nn5)cc4)c3n2)C1 [Example 32]	92	186		
Cc1ncsc1-c1ccc(C2(NC(=O)[C@@H]3C[C@@H](O)CN3C(=O)[C@@H](NC(=O)c3ccc(COc4c(-c5c(C)c(F)cc6[nH]ncc56)c(C5CC5)cc5c(N6C[C@@H]7C[C@H]6CN7)nc(OC6CCOCC6)nc45)cn3)C(C)C)CC2)cc1 [Example 2]	779	1410		
Cc1ncsc1-c1ccc([C@H](CO)NC(=O)[C@@H]2C[C@@H](O)CN2C(=O)[C@H](C(C)C)n2cc(-c3ccc(COc4c(-c5c(C)c(F)cc6[nH]ncc56)c(C5CC5)cc5c(N6C[C@@H]7C[C@H]6CN7)nc(O[C@H](C)[C@@H](C)O)nc45)cc3)nn2)cc1 (atropisomer, axis not shown) [Example 37]	18	19		
Cc1c(F)cc2[nH]ncc2c1-c1c(C2CC2)cc2c(N3C[C@@H]4C[C@H]3CN4)nc(OC3CCOCC3)nc2c1OCc1ccc(-c2cn([C@H](C(=O)N3C[C@H](O)C[C@H]3C(=O)N[C@@H](CO)c3ccc(-c4ccnn4C)cc3)C(C)C)nn2)cc1 [Example 22]	12	27		
